Columns and labels:
[1] = system: HPV-positive cancer cell lines (UMSCC47, CaSki, and MS751); assay: BrdU-TUNEL apoptosis assay, HPV-positive cell lines; assay type: cell-based; settings: 50 nmol/L barasertib or 200 nmol/L alisertib, 72 hours or 2 doubling times
Protocol: BrdU positive apoptotic cells were detected and quantified. The bar graph indicates the percentage of apoptotic cells with fragmented DNA in HPV-positive and HPV-negative cell lines. Values are the means±the standard deviations for 3 independent experiments. FIG. 2B and FIG. 2C show immunoblots of cleaved PARP (Cl. PARP) and cleaved caspase-3 (Cl. Caspase-3) levels in 3-HPV positive and 3 HPV-negative cell lines after barasertib or alisertib treatment for 2 doubling times (FIG. 2B) or 72 hours (FIG. 2C). […] UM47, UMSCC47; GAPDH, glyceraldehyde 3-phosphate dehydrogenase.
To measure apoptosis, TUNEL staining was performed with an APO-BRDU Kit (BD Biosciences, San Jose, CA) and annexin V/propidium iodide staining with an FITC Annexin V Apoptosis Detection Kit PE (eBioscience, San Diego, CA) as described previously (Kalu, et al., Cancer Lett 2018; 431:64-72). […] Data were acquired with a 3-laser, 10-color Gallios flow cytometer (Beckman Coulter, Brea, CA) and analyzed using Kaluza software, RRID:SCR_016182 (Beckman Coulter, Brea, CA). […] Briefly, after drug treatment, cells were incubated with Senescence Green Probe, a fluorescence-based reagent that contains 2 galactoside moieties that make it specific to […]. The enzyme-cleaved product is retained within the cell, and it emits a fluorogenic signal that was measured at 490/514 nm using a flow cytometer. […]

[2] = system: HPV-negative UMSCC22A cells; assay: In vivo tumor growth, HPV-negative xenograft; parameters: species or system mice; settings: 10 mg/kg oral gavage 5 days per week for 21 days, high Rb protein levels
Protocol: PDX tumors HOSC144 (FIG. 3A, FIG. 3E, FIG. 3F), HOSC19 (FIG. 3B), and HOSC156 (FIG. 3C) were implanted into the flanks of nude mice. After engraftment, mice were randomized and assigned into 1 of 2 treatment groups: vehicle (β-cyclodextrin, n=8) or alisertib (10 mg/kg, n=8). Mice were treated for 3 weeks by daily oral gavage. Tumor size was measured twice a week. FIG. 3A, FIG. 3B, and FIG. 3C show in vivo tumor growth curves for individual mice (left 3 panels). Survival (right panels) was measured using the Kaplan-Meier method. In FIG. 3D, HPV-negative UMSCC22A cells were injected subcutaneously (3×10^6 cells) on the right flanks of the mice. Once the tumor volume reached ≥60 mm^3, mice were randomized into treatment groups. Mice were treated with vehicle or 10 mg/kg alisertib by oral gavage for 5 days per week for 21 days. Tumor size was measured twice a week. […] The Ki67(%) was calculated as the ratio of proliferative cells to total cells in each field, using five random fields. […] The apoptotic (%) was calculated as the ratio of apoptotic cells to total cells in each field, using five random fields in HOSC144 PDX tumors after 8 or 21 days of treatment with either vehicle or alisertib. ** P≤0.01; *** P≤0.001. Bars, […]. […]

[3] = system: HPV-negative HNSCC cells (HN31, UMSCC4, and MDA886LN) with RB1 knockdown; assay: Apoptosis after RB1 depletion in HPV-negative cells (annexin V, immunoblot); assay type: cell-based
Protocol: FIG. 4B, HPV-negative HNSCC cells (HN31, UMSCC4, and MDA886LN) were infected with distinct, lentivirus-based shRNAs (Sh2, Sh4, and Sh6) to stably knock down the expression of RB1 or were treated with control (Ctrl) shRNA. Cells were then treated with 300 nmol/L alisertib for 24 hours before annexin V-PE/7AAD staining and analysis with flow cytometry. The bar graph represents the ratio of apoptosis (late plus early) among different groups. Values are the means±the standard deviations for 3 independent experiments. *P<0.05; **P<0.005; unpaired, 2-tailed Student t-test. FIG. 4C, cells from FIG. 4B were treated with 300 nmol/L alisertib for 24 hours before lysis and immunoblotting with the indicated antibodies. […] Representative results from 3 independent experiments are shown. Cl, cleaved; Fl, full length; GAPDH, glyceraldehyde 3-phosphate dehydrogenase; Ox, overexpression.
To measure apoptosis, TUNEL staining was performed with an APO-BRDU Kit (BD Biosciences, San Jose, CA) and annexin V/propidium iodide staining with an FITC Annexin V Apoptosis Detection Kit PE (eBioscience, San Diego, CA) as described previously (Kalu, et al., Cancer Lett 2018; 431:64-72). […] Data were acquired with a 3-laser, 10-color Gallios flow cytometer (Beckman Coulter, Brea, CA) and analyzed using Kaluza software, RRID:SCR_016182 (Beckman Coulter, Brea, CA). Assays were performed in triplicate, and each test was completed twice on different days.
The lentiviral-based shRNA (GIPZ plasmid) used to knock down human RB1 expression was purchased from Horizon Discovery (Waterbeach, United Kingdom). On the basis of the knockdown efficiency of Rb1 protein expression in 3 HPV-negative cell lines (HN31, UMSCC4, and MDA88 6LN), shRblclones were selected (#2, #4, and #6) for this study. […] The mature antisense sequences were as follows: 5′-[sequence]-3′ (SEQ ID NO:1) (shRb1 #2), 5′-[sequence]-3′ (SEQ ID NO:2) (shRb1 #4), and 5′-[sequence]-3′ (SEQ ID NO:3) (shRb1 #6). To generate lentivirus-expressing shRNA for RB1, HEK 293T cells were transfected with GIPZ-non-silence (for the vector control virus) and GIPZ-shRB1 with jetPEI transfection reagent (RRID:CVCL_0063). The medium was changed 24 hours after transfection and then collected every 48 hours thereafter. The collected lentivirus-containing medium was centrifuged and then filtered (0.45 μM).

HPV-negative cell lines = assay: Rb family protein and cleaved caspase-3 levels in HPV-negative cells; assay type: cell-based
Description: The effect of RB1 silencing on the expression of other RB family members (RBL1, RBL2) was also examined. It was observed that the levels of RBL1 remained unchanged with the treatment. However, the protein levels of RBL2 decreased with RB1 silencing as well as with alisertib treatment. The effect of RB1 silencing on RBL2 was likely due to pooled siRNAs. Using RB1 shRNA, an effect of RB1 depletion on RBL2 was not observed, but the enhanced alisertib-induced apoptosis was observed, supporting a role for RB1 alone in this effect.
A decrease of Rb protein expression following Aurora kinase inhibition was noted, that may be related to G2/M cell cycle arrest. Alternatively, it may be that the HPV negative cells with low Rb expression are the ones that survive after Aurora inhibition. To test this at the single cell level, two HPV-negative cell lines were co-stained with anti-Rb labelled with FITC conjugate and anti-cleaved caspase-3 labelled with TRITC and treated with alisertib or vehicle control. As expected in these unsynchronized cells, Rb expression was detectable, but modestly heterogeneous in control cells. […] Consistent with prior data, cells with higher Rb levels have no or very low levels of cleaved caspase-3. Cells with lower Rb levels have modest levels of cleaved caspase-3.

[4] = RB1 shRNA, 300 nmol/L, 24 hours
[5] = two HPV-negative cell lines, vs control cells

## COc1cc(Nc2ncc3c(n2)-c2ccc(Cl)cc2C(c2c(F)cccc2OC)=NC3)ccc1C(=O)O [ALISERTIB, alisertib]
[1]
  TUNEL-positive apoptotic nuclei: significantly increased
[2]
  tumor response: resistant
[3]; RB1 depleted by transient transfection
  cleaved PARP levels: increase in cleaved PARP levels
[3]; [4]
  apoptosis (cleaved caspase-3 and cleaved PARP) in cells with reduced Rb levels: induced significant apoptosis
  increase in annexin V-positive apoptotic cells when Rb was depleted: approximately 3 fold
[3]; control shRNA, 300 nmol/L, 24 hours
  apoptosis in control cells with detectable Rb protein levels: did not induce apoptosis
HPV-negative cell lines
  protein levels of RBL2: decreased
HPV-negative cell lines; [5]
  Rb expression (single cell staining): notably lower
  cleaved caspase 3 (single cell staining): slightly higher
